Assay results taken from ChEMBL document CHEMBL5096194, “Development of Alectinib-Based PROTACs as Novel Potent Degraders of Anaplastic Lymphoma Kinase (ALK)” (J Med Chem, 2021).
Active and inactive are the calls of the source. The rule behind the calls is not given here.

Legend:
[1] = MRTlast in Sprague-Dawley rat at 1 mg/kg, iv administered as single dose measured for 24 hrs by LC-MS/MS analysis; format: ADME, organism-based; details: in vivo
[2] = target: T1, ALK tyrosine kinase receptor (Homo sapiens, UniProt Q9UM73); assay: Inhibition of ALK phosphorylation in human KARPAS-299 cells at 1 uM incubated for 24 hrs followed by compound washout and measured after 72 hrs by Western blot analysis; format: cell-based
Target sequence in this assay (Q9UM73 19-1620 limits assumed): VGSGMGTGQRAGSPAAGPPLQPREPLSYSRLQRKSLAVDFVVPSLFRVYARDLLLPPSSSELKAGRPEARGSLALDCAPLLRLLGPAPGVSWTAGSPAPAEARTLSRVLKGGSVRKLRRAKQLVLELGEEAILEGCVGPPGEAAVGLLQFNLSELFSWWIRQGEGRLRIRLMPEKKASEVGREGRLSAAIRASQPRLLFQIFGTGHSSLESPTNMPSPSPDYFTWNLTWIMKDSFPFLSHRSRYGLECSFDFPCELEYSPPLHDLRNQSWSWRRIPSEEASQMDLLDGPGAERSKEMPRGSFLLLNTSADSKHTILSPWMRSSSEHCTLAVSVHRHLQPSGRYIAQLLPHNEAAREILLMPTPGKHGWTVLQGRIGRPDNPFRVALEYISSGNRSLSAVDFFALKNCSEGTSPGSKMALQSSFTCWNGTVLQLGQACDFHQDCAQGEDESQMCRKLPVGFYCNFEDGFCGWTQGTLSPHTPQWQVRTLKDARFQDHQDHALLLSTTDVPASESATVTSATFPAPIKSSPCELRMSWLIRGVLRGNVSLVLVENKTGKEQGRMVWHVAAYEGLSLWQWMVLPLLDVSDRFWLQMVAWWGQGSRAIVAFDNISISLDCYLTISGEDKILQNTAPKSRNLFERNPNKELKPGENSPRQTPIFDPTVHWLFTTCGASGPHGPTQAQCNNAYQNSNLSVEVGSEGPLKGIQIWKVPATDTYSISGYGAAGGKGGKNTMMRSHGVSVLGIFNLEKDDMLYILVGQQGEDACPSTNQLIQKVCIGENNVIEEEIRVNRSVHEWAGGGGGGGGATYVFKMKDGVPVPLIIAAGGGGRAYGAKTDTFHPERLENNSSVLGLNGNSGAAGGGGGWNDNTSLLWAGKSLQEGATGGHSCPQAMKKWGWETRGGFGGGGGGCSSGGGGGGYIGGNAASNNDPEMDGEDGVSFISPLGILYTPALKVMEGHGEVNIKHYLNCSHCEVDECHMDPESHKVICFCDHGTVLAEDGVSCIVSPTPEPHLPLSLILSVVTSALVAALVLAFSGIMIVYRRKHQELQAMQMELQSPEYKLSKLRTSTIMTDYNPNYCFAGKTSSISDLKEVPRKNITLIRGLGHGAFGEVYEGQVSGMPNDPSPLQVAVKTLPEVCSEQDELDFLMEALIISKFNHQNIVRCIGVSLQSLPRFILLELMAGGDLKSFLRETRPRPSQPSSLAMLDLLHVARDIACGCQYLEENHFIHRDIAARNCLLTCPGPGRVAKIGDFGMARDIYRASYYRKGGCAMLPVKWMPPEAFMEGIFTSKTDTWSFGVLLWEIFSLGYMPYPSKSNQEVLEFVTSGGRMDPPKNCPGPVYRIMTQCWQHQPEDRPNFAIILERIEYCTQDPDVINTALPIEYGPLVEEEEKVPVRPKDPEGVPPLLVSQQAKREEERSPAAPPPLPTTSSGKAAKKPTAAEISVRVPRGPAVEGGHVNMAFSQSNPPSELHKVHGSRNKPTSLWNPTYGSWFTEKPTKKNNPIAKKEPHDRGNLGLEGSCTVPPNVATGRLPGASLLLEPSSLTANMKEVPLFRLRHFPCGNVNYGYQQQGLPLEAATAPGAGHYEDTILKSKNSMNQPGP

[3] = MRTlast in Sprague-Dawley rat at 50 mg/kg, ip administered as single dose measured for 24 hrs by LC-MS/MS analysis; format: ADME, organism-based; details: in vivo
KARPAS-299 [4] = assay: Antitumor activity against human KARPAS-299 cells xenografted in NCG mouse assessed as increase in ALK protein degradation at 25 to 50 mg/kg, ip administered once every day for 3 weeks; format: functional, organism-based; details: dose 25-50 mg/kg
[5] = target: T2, Protein cereblon/ALK tyrosine kinase receptor/Nucleophosmin (Homo sapiens) (UniProt Q9UM73+P06748+Q96SW2); assay: Protac activity at CRBN/NPM-ALK in human KARPAS-299 cells assessed as induction of NPM-ALK fusion protein degradation at 2 uM incubated for 24 hrs by Western blot analysis; format: cell-based
[6] = target: T1, ALK tyrosine kinase receptor; assay: Inhibition of ALK phosphorylation in human KARPAS-299 cells at 0.01 to 1 uM measured after 24 hrs by Western blot analysis; format: cell-based; details: dose 0.01-1 µM
Target sequence in this assay (Q9UM73 19-1620 limits assumed): as above

KARPAS-299 [7] = assay: Downregulation of jun-B protein expression in human KARPAS-299 cells at 1 uM incubated for 24 hrs by iTRAQ proteomics analysis; format: functional, cell-based
BaF3 [8] = assay: Antiproliferative activity against crizotinib-resistant mouse BaF3 cells expressing EML-ALK L1152R mutant assessed as cell viability at 1 uM incubated for 72 hrs by Celltitre-Glo assay relative to control; format: functional; details: read-out: Activity
[9] = target: T3, Protein cereblon/ALK tyrosine kinase receptor/Echinoderm microtubule-associated protein-like 4 (Homo sapiens) (UniProt Q9UM73+Q9HC35+Q96SW2); assay: Protac activity at CRBN/EML4-ALK in human NCI-H3122 cells assessed as induction of EML4-ALK fusion protein degradation at 0.1 uM incubated for 16 hrs by Western blot analysis relative to control; format: cell-based
[10] = target: Protein cereblon/ALK tyrosine kinase receptor/Echinoderm microtubule-associated protein-like 4 (Homo sapiens, UniProt Q96SW2+Q9HC35+Q9UM73); assay: Protac activity at CRBN/EML4-ALK in human NCI-H3122 cells assessed as induction of EML4-ALK fusion protein degradation incubated for 16 hrs by Western blot analysis; format: cell-based
BaF3 [11] = assay: Antiproliferative activity against crizotinib-resistant mouse BaF3 cells expressing EML-ALK L1196M mutant assessed as cell viability at 1 uM incubated for 72 hrs by Celltitre-Glo assay relative to control; format: functional; details: read-out: Activity
[12] = Toxicity in NCG mouse xenografted with human KARPAS-299 cells assessed as lung damage at 10 mg/kg, iv administered once every day for 3 weeks by H and E staining based analysis; format: organism-based; details: in vivo, 504 h
[13] = target: T3, Protein cereblon/ALK tyrosine kinase receptor/Echinoderm microtubule-associated protein-like 4 (Homo sapiens); assay: Protac activity at CRBN/EML4-ALK in human NCI-H3122 cells assessed as reduction in EML4-ALK fusion protein level at 100 nM measured after 16 hrs by Western blot analysis relative to control; format: cell-based; set-up: scale not given: the % may be the effect or the level left
[14] = Toxicity in NCG mouse xenografted with human KARPAS-299 cells assessed as kidney damage at 10 mg/kg, iv administered once every day for 3 weeks by H and E staining based analysis; format: organism-based; details: in vivo, 504 h
[15] = Half life in Sprague-Dawley rat at 50 mg/kg, ip administered as single dose measured for 24 hrs by LC-MS/MS analysis; format: ADME, organism-based; details: in vivo
KARPAS-299 [16] = assay: Antiproliferative activity against ALK-positive human KARPAS-299 cells assessed as inhibition of cell proliferation measured after 72 hrs by MTT assay; format: functional, cell-based; details: KARPAS-299, 72 h
[17] = Volume of distribution in Sprague-Dawley rat at 50 mg/kg, ip administered as single dose measured for 24 hrs by LC-MS/MS analysis; format: ADME, organism-based; details: in vivo
[18] = target: T3, Protein cereblon/ALK tyrosine kinase receptor/Echinoderm microtubule-associated protein-like 4 (Homo sapiens); assay: Protac activity at CRBN/EML4-ALK in human NCI-H3122 cells assessed as induction of EML4-ALK fusion protein degradation at 0.25 uM incubated for 16 hrs by Western blot analysis; format: cell-based
[19] = Toxicity in NCG mouse xenografted with human KARPAS-299 cells assessed as liver damage at 10 mg/kg, iv administered once every day for 3 weeks by H and E staining based analysis; format: organism-based; details: in vivo, 504 h
[20] = target: T2, Protein cereblon/ALK tyrosine kinase receptor/Nucleophosmin (Homo sapiens); assay: Protac activity at CRBN/NPM-ALK in human KARPAS-299 cells assessed as induction of NPM-ALK fusion protein degradation at 0.1 uM incubated for 24 hrs by Western blot analysis relative to control; format: cell-based
BaF3 [21] = assay: Antiproliferative activity against mouse BaF3 cells expressing wild type EML-ALK assessed as cell viability at 1 uM incubated for 72 hrs by Celltitre-Glo assay relative to control; format: functional; details: read-out: Activity
KARPAS-299 [22] = assay: Antitumor activity against human KARPAS-299 cells xenografted in NCG mouse assessed as reduction in tumor volume at 25 to 50 mg/kg, ip administered once every day for 3 weeks and measured every 3 days; format: functional, organism-based; details: dose 25-50 mg/kg
[23] = target: T3, Protein cereblon/ALK tyrosine kinase receptor/Echinoderm microtubule-associated protein-like 4 (Homo sapiens); assay: Protac activity at CRBN/EML4-ALK in human NCI-H3122 cells assessed as induction of EML4-ALK fusion protein degradation at 1 uM incubated for 16 hrs by Western blot analysis relative to control; format: cell-based
KARPAS-299 [24] = assay: Downregulation of SESN2 protein expression in human KARPAS-299 cells at 1 uM incubated for 24 hrs by iTRAQ proteomics analysis; format: functional, cell-based
[25] = target: Protein cereblon/ALK tyrosine kinase receptor/Nucleophosmin (Homo sapiens, UniProt P06748+Q96SW2+Q9UM73); assay: Protac activity at CRBN/NPM-ALK in human KARPAS-299 cells assessed as induction of NPM-ALK fusion protein degradation incubated for 48 hrs by Western blot analysis; format: cell-based
[26] = Toxicity in NCG mouse xenografted with human KARPAS-299 cells assessed as heart damage at 10 mg/kg, iv administered once every day for 3 weeks by H & E staining based analysis; format: organism-based; details: in vivo, 504 h
[27] = Half life in Sprague-Dawley rat at 1 mg/kg, iv administered as single dose measured for 24 hrs by LC-MS/MS analysis; format: ADME, organism-based; details: in vivo
KARPAS-299 [28] = assay: Downregulation of ALK protein expression in human KARPAS-299 cells at 1 uM incubated for 24 hrs by iTRAQ proteomics analysis; format: functional, cell-based
[29] = target: T2, Protein cereblon/ALK tyrosine kinase receptor/Nucleophosmin (Homo sapiens); assay: Protac activity at CRBN/NPM-ALK in human KARPAS-299 cells assessed as induction of NPM-ALK fusion protein degradation at 1 uM incubated for 24 hrs followed by compound washout and measured after 24 hrs by Western blot analysis; format: cell-based
[30] = target: T1, ALK tyrosine kinase receptor
Target sequence in this assay (Q9UM73 whole entry): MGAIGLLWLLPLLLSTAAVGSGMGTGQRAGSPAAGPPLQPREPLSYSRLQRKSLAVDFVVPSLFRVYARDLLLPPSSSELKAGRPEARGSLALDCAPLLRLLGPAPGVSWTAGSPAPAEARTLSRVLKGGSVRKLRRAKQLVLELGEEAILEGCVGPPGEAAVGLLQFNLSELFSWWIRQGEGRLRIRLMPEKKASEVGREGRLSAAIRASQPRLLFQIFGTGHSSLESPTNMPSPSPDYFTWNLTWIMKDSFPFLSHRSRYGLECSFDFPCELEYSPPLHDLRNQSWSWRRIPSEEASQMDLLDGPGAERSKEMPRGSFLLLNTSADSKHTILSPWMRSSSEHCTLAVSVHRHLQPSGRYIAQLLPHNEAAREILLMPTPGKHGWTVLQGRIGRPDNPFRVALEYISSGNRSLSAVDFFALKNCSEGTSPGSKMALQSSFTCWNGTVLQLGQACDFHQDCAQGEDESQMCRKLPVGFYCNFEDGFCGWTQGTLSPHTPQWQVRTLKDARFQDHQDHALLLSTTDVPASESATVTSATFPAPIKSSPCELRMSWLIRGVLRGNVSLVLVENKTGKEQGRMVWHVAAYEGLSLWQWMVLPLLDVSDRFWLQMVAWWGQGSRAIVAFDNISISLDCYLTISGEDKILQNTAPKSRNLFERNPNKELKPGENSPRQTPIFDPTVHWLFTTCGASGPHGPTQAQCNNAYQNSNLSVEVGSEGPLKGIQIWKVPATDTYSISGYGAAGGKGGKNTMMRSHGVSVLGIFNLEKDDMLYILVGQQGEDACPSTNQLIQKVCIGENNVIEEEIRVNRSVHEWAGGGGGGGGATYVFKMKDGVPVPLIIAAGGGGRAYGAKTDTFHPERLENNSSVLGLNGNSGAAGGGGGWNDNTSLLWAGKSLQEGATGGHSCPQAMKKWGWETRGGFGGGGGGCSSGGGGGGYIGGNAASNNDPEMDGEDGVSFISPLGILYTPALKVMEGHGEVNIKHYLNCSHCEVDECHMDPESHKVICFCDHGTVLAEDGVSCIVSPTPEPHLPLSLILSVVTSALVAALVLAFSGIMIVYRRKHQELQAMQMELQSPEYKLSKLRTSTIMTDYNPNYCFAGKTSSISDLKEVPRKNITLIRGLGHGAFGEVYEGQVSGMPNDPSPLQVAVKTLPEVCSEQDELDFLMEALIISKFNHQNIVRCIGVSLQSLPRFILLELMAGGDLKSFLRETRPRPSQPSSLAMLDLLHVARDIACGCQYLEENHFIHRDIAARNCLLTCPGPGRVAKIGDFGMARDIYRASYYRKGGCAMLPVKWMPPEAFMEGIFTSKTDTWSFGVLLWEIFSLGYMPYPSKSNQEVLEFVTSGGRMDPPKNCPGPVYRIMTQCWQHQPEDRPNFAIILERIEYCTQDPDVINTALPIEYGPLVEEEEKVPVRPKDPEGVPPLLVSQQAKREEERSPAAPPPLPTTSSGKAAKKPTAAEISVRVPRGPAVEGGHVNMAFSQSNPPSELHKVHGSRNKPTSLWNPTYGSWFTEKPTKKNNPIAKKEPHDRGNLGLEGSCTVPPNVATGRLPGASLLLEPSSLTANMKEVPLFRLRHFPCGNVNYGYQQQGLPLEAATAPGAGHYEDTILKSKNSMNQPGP

KARPAS-299 [31] = assay: Downregulation of SOCS3 protein expression in human KARPAS-299 cells at 1 uM incubated for 24 hrs by iTRAQ proteomics analysis; format: functional, cell-based
[32] = Observed oral clearance in Sprague-Dawley rat at 50 mg/kg, ip administered as single dose measured for 24 hrs by LC-MS/MS analysis; format: ADME, organism-based; details: in vivo

T3 sequence (Q96SW2 whole entry partner, the tested form may be a part): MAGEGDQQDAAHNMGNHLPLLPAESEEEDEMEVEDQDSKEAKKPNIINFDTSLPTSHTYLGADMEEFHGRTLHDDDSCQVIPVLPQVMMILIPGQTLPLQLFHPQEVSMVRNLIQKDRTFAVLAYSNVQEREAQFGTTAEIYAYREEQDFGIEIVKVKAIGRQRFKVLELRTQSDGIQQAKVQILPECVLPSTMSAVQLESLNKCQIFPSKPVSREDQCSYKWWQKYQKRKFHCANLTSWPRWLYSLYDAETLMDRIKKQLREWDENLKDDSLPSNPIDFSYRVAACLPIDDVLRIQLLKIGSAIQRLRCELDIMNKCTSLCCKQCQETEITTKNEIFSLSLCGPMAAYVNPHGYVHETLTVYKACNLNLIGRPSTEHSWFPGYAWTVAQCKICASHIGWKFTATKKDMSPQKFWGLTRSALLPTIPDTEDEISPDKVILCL
T3 sequence (Q9HC35 whole entry partner, the tested form may be a part): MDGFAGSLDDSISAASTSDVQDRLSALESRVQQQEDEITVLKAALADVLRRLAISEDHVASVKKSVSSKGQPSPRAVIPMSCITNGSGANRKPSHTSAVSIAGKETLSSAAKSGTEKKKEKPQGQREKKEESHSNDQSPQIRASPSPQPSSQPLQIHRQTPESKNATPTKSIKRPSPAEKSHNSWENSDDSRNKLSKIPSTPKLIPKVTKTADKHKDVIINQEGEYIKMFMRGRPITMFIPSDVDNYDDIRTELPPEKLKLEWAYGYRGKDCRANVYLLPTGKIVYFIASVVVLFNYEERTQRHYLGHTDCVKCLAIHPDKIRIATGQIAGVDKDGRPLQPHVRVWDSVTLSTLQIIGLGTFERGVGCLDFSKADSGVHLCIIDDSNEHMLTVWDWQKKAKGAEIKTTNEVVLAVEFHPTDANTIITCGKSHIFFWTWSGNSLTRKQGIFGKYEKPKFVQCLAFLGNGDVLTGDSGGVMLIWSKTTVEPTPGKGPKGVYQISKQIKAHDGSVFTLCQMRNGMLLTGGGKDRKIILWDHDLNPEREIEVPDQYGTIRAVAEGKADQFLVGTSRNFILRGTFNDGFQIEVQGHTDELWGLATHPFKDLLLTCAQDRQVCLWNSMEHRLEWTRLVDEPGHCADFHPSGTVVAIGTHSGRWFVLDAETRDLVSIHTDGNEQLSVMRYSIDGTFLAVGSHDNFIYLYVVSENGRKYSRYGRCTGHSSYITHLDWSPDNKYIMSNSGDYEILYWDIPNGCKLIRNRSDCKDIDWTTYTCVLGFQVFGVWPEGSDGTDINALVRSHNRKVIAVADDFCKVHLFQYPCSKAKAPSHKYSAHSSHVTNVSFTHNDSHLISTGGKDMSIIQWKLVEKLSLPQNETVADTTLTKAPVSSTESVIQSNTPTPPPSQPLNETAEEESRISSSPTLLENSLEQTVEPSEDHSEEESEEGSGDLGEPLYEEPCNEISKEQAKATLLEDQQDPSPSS
T3 sequence (Q9UM73 19-1620 limits assumed): as the sequence (Q9UM73 19-1620 limits assumed) above
T2 sequence (P06748 whole entry partner, the tested form may be a part): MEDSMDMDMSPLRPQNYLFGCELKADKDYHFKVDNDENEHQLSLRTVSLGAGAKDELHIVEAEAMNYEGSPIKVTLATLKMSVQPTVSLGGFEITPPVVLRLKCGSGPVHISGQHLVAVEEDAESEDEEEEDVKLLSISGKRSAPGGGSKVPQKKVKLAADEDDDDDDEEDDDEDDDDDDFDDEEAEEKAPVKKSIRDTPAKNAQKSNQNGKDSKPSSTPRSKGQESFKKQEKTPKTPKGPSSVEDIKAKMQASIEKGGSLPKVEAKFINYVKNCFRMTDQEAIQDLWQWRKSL
T2 sequence (Q96SW2 whole entry partner, the tested form may be a part): as the sequence (Q96SW2 whole entry partner, the tested form may be a part) above
T2 sequence (Q9UM73 19-1620 limits assumed): as the sequence (Q9UM73 19-1620 limits assumed) above

Compound: CCc1cc2c(cc1N1CCN(C(=O)CNc3cccc4c3C(=O)N(C3CCC(=O)NC3=O)C4=O)CC1)C(C)(C)c1[nH]c3cc(C#N)ccc3c1C2=O (configuration not stated)
- MRT last at 24 h [1]: 4.2 min
- inhibition [2]: Active
- MRT last at 24 h [3]: 9.93 h
- Activity (KARPAS-299 [4]): Active
- Activity [5]: Active
- inhibition [6]: Active
- Activity (KARPAS-299 [7]): Active
- viability at 1 µM (BaF3 [8]): 0.1%
- Activity [9]: 50.3%
- EC50 [10]: 27.4 nM
- viability at 1 µM (BaF3 [11]): 6.1%
- Activity [12]: Non-Toxic
- Activity [13]: 22.6%
- Activity [14]: Non-Toxic
- half-life [15]: 30.5 h
- IC50 (KARPAS-299 [16]): 42 nM
- Vd [17]: 1685.67 L/kg
- Activity [18]: Active
- Activity [19]: Non-Toxic
- Activity [20]: 8.6%
- viability at 1 µM (BaF3 [21]): 0.1%
- Activity (KARPAS-299 [22]): Active
- Activity [23]: 83.6%
- Activity (KARPAS-299 [24]): Active
- EC50 [25]: 116 nM
- Activity [26]: Non-Toxic
- half-life [27]: 0.42 h
- Activity (KARPAS-299 [28]): Active
- Activity [29]: Active
- IC50 [30]: 13600 nM
- Activity (KARPAS-299 [31]): Active
- CL/F [32]: 743 mL/min/kg
